PubChem BioAssay AID599 (The Scripps Research Institute Molecular Screening Center, 2007)
Active and inactive are the calls of the source. How the calls were made is not given here.

target: Nuclear receptor ROR-alpha (Homo sapiens) (UniProt P35398); experiment: inhibitors of orphan receptor RORA activity – cell-based, counter-screen for SF-1 inhibitor project, dose response (AID 599); conditions: cell-based RORA reporter inhibition
Sequence (P35398 whole entry, looked up): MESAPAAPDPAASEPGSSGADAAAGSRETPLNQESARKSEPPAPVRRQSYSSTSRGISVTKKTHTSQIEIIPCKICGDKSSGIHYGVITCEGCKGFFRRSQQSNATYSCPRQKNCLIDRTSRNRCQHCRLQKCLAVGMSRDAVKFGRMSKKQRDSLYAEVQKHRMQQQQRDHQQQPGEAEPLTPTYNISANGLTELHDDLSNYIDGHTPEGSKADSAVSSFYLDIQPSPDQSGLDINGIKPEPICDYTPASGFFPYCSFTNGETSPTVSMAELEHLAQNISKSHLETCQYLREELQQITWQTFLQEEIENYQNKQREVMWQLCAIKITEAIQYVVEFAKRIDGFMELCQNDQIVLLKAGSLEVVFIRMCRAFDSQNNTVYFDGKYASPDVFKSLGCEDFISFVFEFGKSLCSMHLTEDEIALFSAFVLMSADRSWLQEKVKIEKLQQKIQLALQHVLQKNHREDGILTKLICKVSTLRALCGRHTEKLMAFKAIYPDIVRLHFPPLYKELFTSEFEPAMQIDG

Row | SMILES | IC50
1 | CCN(CC)c1ccc2c(c1)OC(N)=C(C#N)C2c1cccnc1 (centres undefined) | inactive
2 | COC(=O)C1=C(CN2CCCc3ccccc32)NC(=O)NC1c1ccc(F)cc1 (centres undefined) | 3.59 µM
3 | O=C(/C=C\Nc1cccc(F)c1)c1ccc2c(c1)OCO2 | 5.54 µM
4 | N#CC1=C(N)C(C#N)(C#N)[C@H](c2ccncc2)[C@H]2CN(C(=O)OCc3ccccc3)CC=C12 | inactive
5 | COc1cc(C2C(C#N)=C(N)Oc3cc(N)ccc32)cc(OC)c1OC (centres undefined) | inactive
6 | COC(=O)c1ccc(N2C(=O)CC(N3CCC(n4c(=O)[nH]c5ccccc54)CC3)C2=O)cc1 (centres undefined) | > 99 µM (inactive)
7 | CCOC(=O)C1=C(Cn2cnc3ccccc32)NC(=O)NC1c1cc(C)ccc1C (centres undefined) | > 11 µM (inactive)
8 | Cc1ccc(C(=O)/C=C/Nc2ccccn2)cc1 | inactive
9 | CN(C)c1ccc2c(c1)OC(N)=C(C#N)C2c1cccc(F)c1 (centres undefined) | inactive
10 | CN(C)c1ccc(N/C=C/C(=O)c2ccccc2)cc1 | inactive
11 | COc1cc(C2C(C#N)=C(N)Oc3cc(N(C)C)ccc32)cc2c1OCO2 (centres undefined) | > 3.67 µM (inactive)
12 | CC(=O)CC1OC(=O)C(Br)=C1NCc1ccccc1 (centres undefined) | 9.45 µM
13 | O=C(/C=C\Nc1ccc2c(c1)OCO2)c1ccccn1 | > 11 µM (inactive)
14 | CSC1=C(C#N)C(c2ccc(Cl)cc2)C2=C(CC(C)(C)CC2=O)N1 (centres undefined) | inactive
15 | CCOc1ccccc1-n1c(SCC(=O)Nc2ccc(CC)cc2)nc2n[nH]c(C)c2c1=N | 6.54 µM
16 | O=S(=O)(c1ccc2c(c1)C(=NO)c1cc(S(=O)(=O)N3CCCCC3)ccc1-2)N1CCCCC1 | 1.93 µM
17 | O=C(/C=C\Nc1ccccn1)c1ccc(Cl)cc1 | 7.08 µM
18 | COc1cc(C2C(C#N)=C(C)NC3=C2C(=O)c2ccccc23)cc(OC)c1OC (centres undefined) | 4.75 µM
19 | COc1cc(/C=N/O)ccc1OCc1ccc(C(=O)O)cc1 | 0.967 µM
